From patent publication US11834434B2, “Substituted 2-heteroaryloxypyridines and salts thereof and their use as herbicidal agents” (Bayer Aktiengesellschaft, priority 2018, dated 2023)

Columns and labels:
Format in all cases: in vivo
[1] = test system: Setaria viridis (SETVI); assay: Pre-emergence herbicidal action against Setaria viridis; conditions: 1280 g/ha; scored visually after about 3 weeks vs untreated controls; 100% = plants have died, 0% = like control plants
Source text: (§1) Seeds of mono- and dicotyledonous weed plants were placed in plastic pots in sandy loam soil (doubly sown with in each case one species of mono- or dicotyledonous weed plants per pot) and covered with soil. The compounds of the invention, formulated in the form of wettable powders (WP) or as emulsion concentrates (EC), were then applied onto the surface of the covering soil as aqueous suspension or emulsion with addition of 0.5% additive at a water application rate of 600 liters per hectare (converted). After the treatment, the pots were placed in a greenhouse and kept under good growth conditions for the test plants. After about 3 weeks, the effect of the preparations was scored visually in comparison with untreated controls as percentages. For example, 100% activity=the plants have died, 0% activity=like control plants. Tables C1 to C8 below show the effects of selected compounds of the general formula (I) according to Table 1 on various harmful plants and an application rate corresponding to 1280 g/ha, which were obtained by the experimental procedure mentioned above.

[2] = test system: Lolium rigidum (LOLRI); assay: Pre-emergence herbicidal action against Lolium rigidum; conditions: 1280 g/ha; scored visually after about 3 weeks vs untreated controls; 100% = plants have died, 0% = like control plants
Source text: as §1

[3] = test system: Amaranthus retroflexus (AMARE); assay: Post-emergence herbicidal action against Amaranthus retroflexus; conditions: 1280 g/ha; rated visually after about 3 weeks vs untreated controls; 100% = plants have died, 0% = like control plants
Description: (§2) Seeds of mono- and dicotyledonous weed plants were placed in plastic pots in sandy loam soil (doubly sown with in each case one species of mono- or dicotyledonous weed plants per pot), covered with soil and cultivated in a greenhouse under controlled growth conditions. 2 to 3 weeks after sowing, the test plants were treated at the one-leaf stage. The compounds of the invention, formulated in the form of wettable powders (WP) or as emulsion concentrates (EC), were applied onto the green parts of the plants as aqueous suspension or emulsion with addition of 0.5% additive at a water application rate of 600 liters per hectare (converted). After the test plants had been kept in the greenhouse under optimum growth conditions for about 3 weeks, the activity of the preparations was rated visually in comparison to untreated controls. For example, 100% activity=the plants have died, 0% activity=like control plants. Tables B1 to B8 below show the effects of selected compounds of the general formula (I) according to Table 1 on various harmful plants and an application rate corresponding to 1280 g/ha, which were obtained by the experimental procedure mentioned above.

[4] = test system: Poa annua (POAAN); assay: Pre-emergence herbicidal action against Poa annua; conditions: 1280 g/ha; scored visually after about 3 weeks vs untreated controls; 100% = plants have died, 0% = like control plants
Source text: as §1

[5] = test system: Stellaria media (STEME); assay: Pre-emergence herbicidal action against Stellaria media; conditions: 1280 g/ha; scored visually after about 3 weeks vs untreated controls; 100% = plants have died, 0% = like control plants
Source text: as §1

[6] = test system: Amaranthus retroflexus (AMARE); assay: Pre-emergence herbicidal action against Amaranthus retroflexus; conditions: 1280 g/ha; scored visually after about 3 weeks vs untreated controls; 100% = plants have died, 0% = like control plants
Source text: as §1

[7] = test system: Matricaria inodora (MATIN); assay: Pre-emergence herbicidal action against Matricaria inodora; conditions: 1280 g/ha; scored visually after about 3 weeks vs untreated controls; 100% = plants have died, 0% = like control plants
Source text: as §1

[8] = test system: Stellaria media (STEME); assay: Post-emergence herbicidal action against Stellaria media; conditions: 1280 g/ha; rated visually after about 3 weeks vs untreated controls; 100% = plants have died, 0% = like control plants
Description: as §2

[9] = test system: Abutilon theophrasti (ABUTH); assay: Post-emergence herbicidal action against Abutilon theophrasti; conditions: 1280 g/ha; rated visually after about 3 weeks vs untreated controls; 100% = plants have died, 0% = like control plants
Description: as §2

[10] = test system: Abutilon theophrasti (ABUTH); assay: Pre-emergence herbicidal action against Abutilon theophrasti; conditions: 1280 g/ha; scored visually after about 3 weeks vs untreated controls; 100% = plants have died, 0% = like control plants
Source text: as §1

[11] = test system: Echinochloa crus-galli (ECHCG); assay: Pre-emergence herbicidal action against Echinochloa crus-galli; conditions: 1280 g/ha; scored visually after about 3 weeks vs untreated controls; 100% = plants have died, 0% = like control plants
Source text: as §1

[12] = test system: Poa annua (POAAN); assay: Post-emergence herbicidal action against Poa annua; conditions: 1280 g/ha; rated visually after about 3 weeks vs untreated controls; 100% = plants have died, 0% = like control plants
Description: as §2

Row | SMILES | Pre-emergence action against Setaria viridis (SETVI) [1] [%] | Pre-emergence action against Lolium rigidum (LOLRI) [2] [%] | Post-emergence action against Amaranthus retroflexus (AMARE) [3] [%] | Pre-emergence action against Poa annua (POAAN) [4] [%] | Pre-emergence action against Stellaria media (STEME) [5] [%] | Pre-emergence action against Amaranthus retroflexus (AMARE) [6] [%] | Pre-emergence action against Matricaria inodora (MATIN) [7] [%] | Post-emergence action against Stellaria media (STEME) [8] [%] | Post-emergence action against Abutilon theophrasti (ABUTH) [9] [%] | Pre-emergence action against Abutilon theophrasti (ABUTH) [10] [%] | Pre-emergence action against Echinochloa crus-galli (ECHCG) [11] [%] | Post-emergence action against Poa annua (POAAN) [12] [%]
1 | COc1cc(Cc2ccc(C)nc2Oc2ncc(C(F)(F)F)cn2)ccc1F [Example I-465] | 90 | 90 | 90 | 100 | 90 | 100 | – | – | – | – | – | –
2 | Fc1cnc(Oc2ncccc2Sc2ccc(F)cc2F)nc1 [Example I-156] | 90 | – | 100 | 100 | 100 | 100 | 90 | 100 | 100 | – | – | –
3 | COc1cc(Oc2ccc(C)nc2Oc2ncc(F)cn2)ccc1F [Example I-520] | 90 | 100 | 100 | 100 | 100 | 100 | 100 | – | 90 | 90 | – | –
4 | COc1cc(Cc2ccc(C)nc2Oc2ncc(F)cn2)ccc1F [Example I-439] | 100 | – | – | 100 | 100 | 90 | – | 90 | – | 100 | 100 | –
5 | COc1cc(Oc2ccc(C)nc2Oc2ncc(Cl)cn2)ccc1F [Example I-509] | 90 | 90 | 100 | 100 | 100 | 100 | 100 | – | – | 100 | – | –
6 | Cc1ccc(Oc2ccc(Cl)cc2)c(Oc2ncc(C(F)(F)F)cn2)n1 [Example I-534] | 90 | 100 | – | – | 100 | 90 | 90 | – | – | – | – | –
7 | COc1cc(Cc2ccc(C)nc2Oc2ncc(Cl)cn2)ccc1F [Example I-406] | 100 | 90 | 90 | 100 | 100 | 90 | 100 | 90 | – | – | – | 90
8 | Cc1ccc(Cc2ccc(C)nc2Oc2ncc(F)cn2)cc1 [Example I-438] | – | – | 90 | – | 100 | – | 100 | 90 | – | 90 | – | –
9 | Fc1ccc(Sc2cccnc2Oc2ncc(F)cn2)cc1 [Example I-154] | 100 | – | 100 | 100 | 100 | 100 | 100 | – | – | – | – | –
10 | Cc1ccc(Cc2ccccc2)c(Oc2ncc(F)cn2)n1 [Example I-430] | 100 | 90 | 90 | 100 | 100 | 100 | 100 | 100 | – | 100 | 100 | 90
11 | Cc1ccc(Oc2ccc(Cl)cc2)c(Oc2ncccn2)n1 [Example I-526] | 100 | – | – | 100 | 100 | 100 | 100 | – | – | 100 | 100 | 100
12 | Cc1ccc(Cc2ccc(C)nc2Oc2ncc(Cl)cn2)cc1 [Example I-405] | 100 | – | – | – | 100 | 100 | – | – | – | – | – | –
13 | Cc1ccc(Cc2ccccc2)c(Oc2ncccn2)n1 [Example I-441] | 100 | 90 | 100 | 100 | 100 | 100 | 100 | 100 | – | 100 | 100 | –
14 | Cc1ccc(Oc2ccccc2)c(Oc2ncccn2)n1 [Example I-522] | 100 | 90 | 100 | 100 | 100 | 90 | 90 | 100 | – | 100 | 100 | 90
15 | Cc1ccc(Cc2ccc(C)nc2Oc2ncccn2)cc1 [Example I-449] | – | – | – | 90 | 100 | – | – | – | – | – | – | –
16 | Cc1ccc(Cc2ccc(F)cc2F)c(Oc2ncc(Cl)cn2)n1 [Example I-400] | 100 | – | – | 100 | 100 | 90 | 90 | – | – | – | – | –
17 | Cc1ccc(Oc2ccccc2)c(Oc2ncc(C(F)(F)F)cn2)n1 [Example I-533, 2-[(6-Methyl-3-phenoxy-2-pyridyl)oxy]-5-(trifluoromethyl)pyrimidine] | 90 | – | – | 90 | 100 | – | – | – | – | – | 90 | 100
18 | COc1cc(Oc2ccc(C)nc2Oc2ncccn2)ccc1F [Example I-531] | 100 | – | – | 100 | 100 | 100 | 100 | – | – | 100 | 90 | –
19 | COc1cc(Cc2ccc(C)nc2Oc2ncccn2)ccc1F [Example I-450] | 100 | 90 | 90 | 100 | 100 | 90 | 100 | – | – | 100 | 90 | –
